Test results: US9643988B2, “Compounds having low ionization energy” (THE ARIZONA BOARD OF REGENTS ON BEHALF OF THE UNIVERSITY OF …, priority 2013, dated 2017)
Where “and” joins values, the source holds several entries; their conditions need not be identical. Equal entries are not always repeated. Where two headings read alike, the source gives them in different places.

Tests used:
[1] = cited from earlier work
[2] = Gas-phase photoelectron spectroscopy (PES) of the δ bond ionization; format: physicochemical; settings: for onset ionization energy (IEonset, PESonset): first ionization band; for vertical ionization energy (VIE, PESvertical): position of main Gaussian peak
Procedure: The gas-phase PES of W2(TMhpp)4 and W2(TEhpp)4 were recorded using an instrument that features a 36-cm radius, 8-cm gap hemispherical analyzer, and custom-designed excitation source, sample cells, detection and control electronics, and methods that have been described, for example, in Rev. Sci. Instrum. 1986, 57, 2366 and J. Am. Chem. Soc. 1998, 120, 3382-3386. The temperature was monitored using a “K”-type thermocouple passed through a vacuum feed through and attached directly to the sample cell. Samples of W2(TMhpp)4 and W2(TEhpp)4 were loaded into stainless steel cells and placed in the instrument using rigorous air-sensitive techniques. The data collection focused on determining the δ bond ionization energy. To avoid decomposition in the sample chamber of the cell, ampoules containing the samples were broken off and placed directly in the ionization chamber.
Complete spectra were collected every few minutes.
The ^2P3/2 peak of argon at 15.76 eV ionization energy is typically used for internal energy calibration, but over the course of the experiment sensitivity to the ^2P3/2 peak of Ar was lost. This often happens with molecules that are strong reductants, presumably because of the very large change in work function of the spectrometer when the sample condenses on the spectrometer surfaces. At this point the lamp was adjusted to emit He II photons in addition to He I photons. This allowed observation of the He self-ionization (by He II photons) at an apparent binding energy of 4.99 eV in the He I spectrum. This very sharp line is a convenient internal energy calibrant and is preferable for the calibration of low-energy ionizations. The resolution, as measured by the Ar peak before it was no longer visible, was approximately 0.030 eV. The resolution for the W2(TMhpp)4 and W2(TEhpp)4 experiments, as measured by the He self-ionization, was 71 meV and 88 meV, respectively. Over the course of two separate data collections of W2(TMhpp)4, approximately 800 counts of the full He I spectrum (Graphic S1) and an additional 400 counts of a close-up on the δ bond ionization were collected. For W2(TEhpp)4 approximately 400 counts of the δ bond ionization were collected.
The ionization bands are represented analytically with asymmetric Gaussian peaks. As is typical for the first ionization bands of M2(hpp)4 molecules, a weak shoulder is observed on the high ionization energy side of the peak that necessitates the use of a second asymmetric Gaussian component to reasonably account for the total contour of the ionization intensity. The additional ionization intensity on the high ionization energy side of the first band is ascribed to the different puckered conformations that the hpp ligands can adopt in the molecules. […]

[3] = Solubility in dry organic solvents; format: physicochemical
[4] = reported value for comparison, cited from earlier work; for reported E1/2 / observed peak position for W2^5+/4+: THF
[5] = comparison value; cited from earlier work
[6] = Differential pulse voltammetry in THF vs Ag/AgCl; format: physicochemical; settings: DPV peak
Procedure: ^1H NMR spectra were recorded on a Mercury 300 spectrometer with chemical shifts referenced to the protonated solvent residue. Mass spectrometry data (electrospray ionization, ESI) were recorded at the Laboratory for Biological Mass Spectrometry at Texas A&M University using an MDS Series Qstar Pulsar with a spray voltage of 5 kV. Elemental analyses were performed by Robertson Microlit Laboratories, Inc., Madison, N.J. on crystalline samples that were previously washed with cold hexanes and dried overnight under vacuum. Infrared spectra were recorded in a Perkin-Elmer 16PC FT IR spectrophotometer using KBr pellets. Electronic spectra were recorded on a Shimadzu UV-2501 PC spectrophotometer. The differential pulse voltammograms were collected using a CH Instruments model-CHI620A electrochemical analyzer in a 0.1 M Bu^n4NPF6 solution in THF, using Pt working and auxiliary electrodes, a Ag/AgCl reference electrode, and a scan rate of 100 mV/s. All potential values are referenced to the Ag/AgCl electrode, and under the present experimental conditions, the E1/2 for the Fc^+/Fc couple consistently occurred at +440 mV.

[7] = vacuum
[8] = Ionization energies of comparison substances; format: physicochemical; settings: difference versus compounds 3 and 4
[9] = Literature potentials and solvation energy of comparison substances; format: physicochemical; settings: difference versus compounds 3 and 4
[10] = common dry solvents such as THF, toluene, and benzene
[11] = non-halogenated, non-protonated solvents such as THF, toluene, benzene and even hexanes

Compound: [K] [K, potassium]
- E1/2, literature ([1]; in THF): −2.66 V

Compound: C1CN2CCC[N+]3=C2[N](C1)[W-2]124[N]5CCCN6CCC[N+](=C65)[W-2]31([N+]1=C3N(CCC[N]32)CCC1)[N+]1=C2N(CCC[N]24)CCC1 [W2(hpp)4, reference compound]
- onset ionization energy (IEonset, PESonset) [2]: 3.51 eV and 3.51±0.05 eV
- vertical ionization energy (VIE, PESvertical) [2]: 3.76 eV
- solubility ([3]; non-reactive organic solvents): poor solubility
- reported E1/2 / observed peak position for W2^5+/4+ [4]: −1.81 V
- reported E1/2 for W2^6+/5+ [4]: −0.97 V

Compound: C1CN=C2[N-]CCCN2C1.C1CN=C2[N-]CCCN2C1.C1CN=C2[N-]CCCN2C1.C1CN=C2[N-]CCCN2C1.FC(F)(F)c1cc([B-](c2cc(C(F)(F)F)cc(C(F)(F)F)c2)(c2cc(C(F)(F)F)cc(C(F)(F)F)c2)c2cc(C(F)(F)F)cc(C(F)(F)F)c2)cc(C(F)(F)F)c1.FC(F)(F)c1cc([B-](c2cc(C(F)(F)F)cc(C(F)(F)F)c2)(c2cc(C(F)(F)F)cc(C(F)(F)F)c2)c2cc(C(F)(F)F)cc(C(F)(F)F)c2)cc(C(F)(F)F)c1.[W+3]#[W+3] [W2(hpp)4^2+ (TFPB^−)2]
- reported E1/2 / observed peak position for W2^5+/4+ [4]: −1.81 V

Compound: [Cs] [cesium]
- ionization energy (IE) [5]: 3.89 eV

Compound: CC1(C)CN2CC(C)(C)C[N+]3=C2[N](C1)[W-2]124([Cl])[N]5CC(C)(C)CN6CC(C)(C)C[N+](=C65)[W-2]31([Cl])([N+]1=C3N(CC(C)(C)C[N]32)CC(C)(C)C1)[N+]1=C2N(CC(C)(C)C[N]24)CC(C)(C)C1 [compound 1, W2(TMhpp)4Cl2]
- E1/2(1), W2^6+/5+ process [6]: −0.99 V
- E1/2(2), W2^5+/4+ process [6]: −1.84 V

Compound: CCC1(CC)CN2CC(CC)(CC)C[N+]3=C2[N](C1)[W-2]124([Cl])[N]5CC(CC)(CC)CN6CC(CC)(CC)C[N+](=C65)[W-2]31([Cl])([N+]1=C3N(CC(CC)(CC)C[N]32)CC(CC)(CC)C1)[N+]1=C2N(CC(CC)(CC)C[N]24)CC(CC)(CC)C1 [compound 2, W2(TEhpp)4Cl2]
- E1/2(1), W2^6+/5+ process [6]: −0.99 V
- E1/2(2), W2^5+/4+ process [6]: −1.90 V

Compound: W2(TEhpp)4 [compound 4]
- onset ionization energy (IEonset, PESonset) [2]: 3.40±0.05 eV
- vertical ionization energy (VIE, PESvertical) [2]: 3.71±0.03 eV
- solubility properties compared to decamethylcobaltocene [3]: compare very favorably
- solubility [3, 10]: very soluble
- solubility ([3]; hexanes): significantly more soluble
- solubility [3, 11]: very soluble
- decomposition during PES measurement ([7]; 317-340° C., about 1 h): In neither case was there any evidence of decomposition
- decomposition during PES measurement ([7]; 317-340° C., about 1 h, listed as W2(TEhpp)4): without evidence of decomposition

Compound: W2(TMhpp)4 [compound 3]
- solubility properties compared to decamethylcobaltocene [3]: compare very favorably
- solubility [3, 10]: very soluble
- solubility ([3]; hexanes): Some solubility
- solubility [3, 11]: very soluble
- decomposition during PES measurement ([7]; 216 to 271° C., 2½ h): In neither case was there any evidence of decomposition
- decomposition during PES measurement ([7]; 216 to 271° C., 2½ h, listed as W2(TMhpp)4): without evidence of decomposition

Compound: decamethylcobaltocene [(Cp*)2Co]
- ionization energy greater than that of compounds 3 and 4 [8]: more than 1 eV
- oxidation potential less negative than that of compounds 3 and 4 [9]: approximately 0.4 V
- ionization energy (IE) [5]: 4.705 eV
- oxidation potential ([1]; comparison value): −1.47 V
